Where a name gives a salt, the structure may show the parent alone.
Test system: IL-1β secretion, THP-1 cells
Test: IL-1β secretion assay in PMA-differentiated THP-1 cells stimulated with LPS and nigericin (ELISA readout)
Type: cell-based
Conditions: 25 ng/mL LPS then nigericin
Protocol: Compounds as provided herein were tested in the following assay. Cell culture medium employed contained RPMI 1640 medium (89%), FBS (10%), Pen/Strep (1%), and 2-mercaptoethanol (0.05 mM). Freezing medium was made up of 90% FBS and 10% DMSO. THP-1 cells were removed from the liquid nitrogen and placed into a 37° C. water bath to thaw, until signs of ice dissipated. The cells were then added to 9 mL of warm cell culture medium and centrifuged for 5 minutes at 1000 rpm. The supernatant was discarded, and the cells were resuspended in new cell culture medium. THP-1 cells were then split and cultured in the cell culture medium, being passaged every 2-3 days with the cell density will be maintained between 5×10^5 and 1.5×10^6 viable cells/mL.
PMA was dissolved in DMSO to make a stock solution at 5 mg/ml and stored in 10 µl aliquots at -20° C. for single use. PMA is added to normal growth medium. LPS was diluted with 1 mL of water solution to provide a 1 mg/mL stock solution and stored in 15 µl aliquots at -20° C. for single use. Nigericin is diluted in ice cold 100% ethanol to 5 mg/ml (6.7 mM) and stored in 75 µL aliquots at -20° C. for single use. Serum-free media contains RPMI 1640 medium (99%), Pen/Strep (1%), and 2-mercaptoethanol (0.05 mM). The two control conditions used to qualify and normalize test compound dose-response curves were as follows: High Control = 25 ng/mL LPS, 5 µM Nigericin, 0.5% DMSO, Low Control = 25 ng/mL, LPS, 0.5% DMSO.
THP-1 cells were diluted to provide a suspension at a concentration of 1.0×10^6 cells/mL with the total volume of suspension required to enable the desired number of assay plates. The growth media was supplemented with PMA (5 ng/mL final concentration) and the cells were incubated at 37° C. under a humidified atmosphere of 5% CO2 for 40 h.
All media was carefully aspirated from each culture flask. The cells were washed carefully with 1x DPBS. The cells were then briefly digested with trypsin LE for 5 minutes at 23° C. and immediately resuspended in cell growth media. After resuspension, the cells were centrifuged at 1000 rpm for 3 minutes and the supernatant was discarded. The cells were resuspended in DPBS and once again centrifuged at 1000 rpm for 5 minutes. The supernatant was discarded and the cell pellet was resuspended in serum-free media supplemented with LPS (25 ng/mL final concentration) to enable the distribution of 30 K THP-1 cells within 45 µL of media into each well of 384-well PDL-coated plates. The 384-well plates were then incubated at 37° C. under a humidified atmosphere of 5% CO2 for 2 h. Following this period, test compounds were dispensed by Tecan across the desired concentration range with all wells normalized to a final 0.5 % DMSO concentration. The plates were then then incubated at 37° C. under a humidified atmosphere of 5% CO2 for 1 h. Following this period, 5 µL of the […] nigericin stock solution was added to each of the appropriate wells and plates were centrifuged at 1000 rpm for 30 seconds. The plates were the immediately reintroduced to the incubator at 37° C. under a humidified atmosphere of 5% CO2 for 2 h. After this time, 35 µL/well of supernatant was collected and transferred into v-bottom plate and centrifuged at 1000 rpm for 1 minute. These supernatant aliquots were analyzed using an IL-Iβ detection kit as described below. If needed, the test samples could be snap frozen and stored at -80° C. until analyzed.
To prepare each ELISA plate, capture antibody (mAb Mt175) was diluted with PBS to a final concentration of 2 µg/mL and then 20 µL of this solution was added to each well of the ELISA plate. Each plate was allowed to incubate overnight at 4° C. The next day, the capture antibody solution was removed and discarded. Each ELISA plate was washed 4 times with PBST followed by the addition of 25 µL/well of blocking buffer (Licor-927-40010) supplemented with 0.1% Tween 20. Each ELISA plate was then allowed to incubate for 1 hour at 23° C. […]

[1] = Homo sapiens, THP-1, inhibition of IL-1β secretion, class column of Table 3
[2] = Homo sapiens, THP-1, inhibition of IL-1β secretion, numeric column of Table 3
[3] = inhibition of IL-1β secretion, class column of Table 3
[4] = inhibition of IL-1β secretion, numeric column of Table 3

| SMILES | IC50 [1] [µM] | IC50 [2] [µM] | IC50 [3] [µM] | IC50 [4] [µM] |
| --- | --- | --- | --- | --- |
| CC(O)c1nn(CC(=O)Nc2ncccn2)c(=O)c2ccc(Br)cc12 (single isomer, unassigned) [Example 101, 2-(6-bromo-4-(1-hydroxyethyl)-1-oxophthalazin-2(1H)-yl)-N-(pyrimidin-2-yl)acetamide] | < 10 | 1.45 |  |  |
| CC(O)c1nn(CC(=O)Nc2ncccn2)c(=O)c2ccc(Br)cc12 (single isomer, unassigned) [Example 102, 2-(6-bromo-4-(1-hydroxyethyl)-1-oxophthalazin-2(1H)-yl)-N-(pyrimidin-2-yl)acetamide] |  |  | < 10 | 2.44 |
| O=C(Cn1nc([C@H]2C[C@H]2F)c2cc(Br)ccc2c1=O)Nc1ncc(F)cn1 (single isomer, unassigned) [Example 165, 2-[6-bromo-4-[2-cis-fluorocyclopropyl]-1-oxophthalazin-2-yl]-N-(5-fluoropyrimidin-2-yl)acetamide] | < 10 |  |  | 0.613 |
| O=C(Cn1nc([C@H]2C[C@H]2F)c2cc(Br)ccc2c1=O)Nc1ncc(F)cn1 (single isomer, unassigned) [Example 166, 2-[6-bromo-4-[2-cis-fluorocyclopropyl]-1-oxophthalazin-2-yl]-N-(5-fluoropyrimidin-2-yl)acetamide] |  |  | < 10 | 0.237 |
| CC(C)c1nn(CC(=O)N[C@H]2C[C@@](C)(O)C2)c(=O)c2ccc(Br)cc12 [Example 1, 2-(6-Bromo-4-isopropyl-1-oxophthalazin-2(1H)-yl)-N-(cis-3-hydroxy-3-methylcyclobutyl)acetamide] | < 10 | 0.03 |  |  |
| CC(C)c1nn(CC(=O)N[C@H]2C[C@@](C)(O)C2)c(=O)c2cc(Br)ccc12 [Example 2, 2-(7-Bromo-4-isopropyl-1-oxophthalazin-2(1H)-yl)-N-(cis-3-hydroxy-3-methylcyclobutyl)acetamide] | < 10 | 2.11 |  |  |
| CCN1CCC[C@@H](NC(=O)Cn2nc(C(C)C)c3cc(Br)ccc3c2=O)C1 [Example 3, (R)-2-(6-Bromo-4-isopropyl-1-oxophthalazin-2(1H)-yl)-N-(1-ethylpiperidin-3-yl)acetamide] | < 10 | 0.159 |  |  |
| CCN1CCC[C@@H](NC(=O)Cn2nc(C(C)C)c3cc(C)ccc3c2=O)C1 [Example 4] | < 10 | 1.83 |  |  |
| CC(C)c1nn(CC(=O)N[C@@H]2CCCN(C3CC3)C2)c(=O)c2ccc(Br)cc12 [Example 5, (R)(6-Bromo-4-Isopropyl-1-Oxophthalazin-2(1H)-yl)-N-(1-Cyclopropylpiperidin-3-yl)Acetamide] | < 10 | 0.046 |  |  |
| CC(C)c1nn(CC(=O)Nc2ncncc2F)c(=O)c2ccc(Br)cc12 [Example 6, 2-(6-Bromo-4-isopropyl-1-oxophthalazin-2(1H)-yl)-N-(5-fluoropyrimidin-4-yl)acetamide] | < 10 | 0.121 |  |  |
| CC(C)c1nn(CC(=O)N[C@@H]2CCCN(CC(F)(F)F)C2)c(=O)c2ccc(Br)cc12 [Example 7, (R)-2-(6-Bromo-4-isopropyl-1-oxophthalazin-2(1H)-yl)-N-(1-(2,2,2-trifluoroethyl)piperidin-3-yl)acetamide] | < 10 | 1.03 |  |  |
| CC(C)c1nn(CC(=O)Nc2ccncc2F)c(=O)c2ccc(Br)cc12 [Example 8, 2-(6-Bromo-4-isopropyl-1-oxophthalazin-2(1H)-yl)-N-(3-fluoropyridin-4-yl)acetamide] | < 10 | 0.235 |  |  |
| CC(C)c1nn(CC(=O)Nc2ncncc2F)c(=O)c2ccc(Br)c(F)c12 [Example 9, 2-(6-Bromo-5-fluoro-4-isopropyl-1-oxophthalazin-2(1H)-yl)-N-(5-fluoropyrimidin-4-yl)acetamide] | < 10 | 0.144 |  |  |
| CC(C)c1nn(CC(=O)NC2CN(C(=O)OC(C)(C)C)CC(F)(F)C2)c(=O)c2ccc(Br)cc12 (stereo not shown) [Example 10, tert-Butyl-5-[[2-(6-bromo-4-isopropyl-1-oxo-phthalazin-2-yl)acetyl]amino]-3,3-difluoro-piperidine-1-carboxylate] | < 10 | 3.05 |  |  |
| CC(C)c1nn(CC(=O)NC2CNCC(F)(F)C2)c(=O)c2ccc(Br)cc12 (stereo not shown) [Example 11, 2-(6-bromo-4-isopropyl-1-oxophthalazin-2(lH)-yl)-N-(5,5-difluoropiperidin-3-yl)acetamide HCl salt] | < 10 | 3.15 |  |  |
| CCN1CC(NC(=O)Cn2nc(C(C)C)c3cc(Br)ccc3c2=O)CC(F)(F)C1 (stereo not shown) [Example 12] | < 10 | 2.59 |  |  |
| CC(F)(F)c1nn(CC(=O)Nc2ncncc2F)c(=O)c2ccc(Br)cc12 [Example 13, 2-[6-bromo-4-(1,1-difluoroethyl)-1-oxophthalazin-2-yl]-N-(5-fluoropyrimidin-4-yl)acetamide] | < 10 | 2.32 |  |  |
| CC(C)c1nn(C(C)C(=O)Nc2ncncc2F)c(=O)c2ccc(Br)cc12 (stereo not shown) [Example 14, 2-(6-bromo-1-oxo-4-propan-2-ylphthalazin-2-yl)-N-(5-fluoropyrimidin-4-yl)propanamide] | < 10 | 3.66 |  |  |
| CC(C)c1nn(CC(=O)Nc2ncncc2F)c(=O)c2ccc(OC(F)(F)F)cc12 [Example 15, N-(5-fluoropyrimidin-4-yl)-2-[1-oxo-4-propan-2-yl-6-(trifluoromethoxy)phthalazin-2-yl]acetamide] | < 10 | 6.27 |  |  |
| CC(C)c1nn(CC(=O)Nc2ncncc2F)c(=O)c2ccc(OC(F)F)cc12 [Example 16, 2-[6-(difluoromethoxy)-1-oxo-4-propan-2-ylphthalazin-2-yl]-N-(5-fluoropyrimidin-4-yl)acetamide] | < 10 | 0.787 |  |  |
| CC(c1nn(CC(=O)Nc2ncncc2F)c(=O)c2ccc(Br)cc12)C(F)(F)F (stereo not shown) [Example 17, 2-[6-bromo-1-oxo-4-(1,1,1-trifluoropropan-2-yl)phthalazin-2-yl]-N-(5-fluoropyrimidin-4-yl)acetamide] | < 10 | 0.876 |  |  |
| CC(c1ccc2c(=O)n(CC(=O)Nc3ncncc3F)nc(Br)c2c1)C(F)(F)F (stereo not shown) [Example 18, 2-[4-bromo-1-oxo-6-(1,1,1-trifluoropropan-2-yl)phthalazin-2-yl]-N-(5-fluoropyrimidin-4-yl)acetamide] | 10 to 15 | 10.7 |  |  |
| CC(C)c1nn(CC(=O)Nc2ncncc2F)c(=O)c2ccc(C3CC3)cc12 [Example 19, 2-(6-cyclopropyl-1-oxo-4-propan-2-ylphthalazin-2-yl)-N-(5-fluoropyrimidin-4-yl)acetamide] | < 10 | 0.334 |  |  |
| CC(C)c1nn(CC(=O)Nc2ncncc2F)c(=O)c2ccc(I)cc12 [Example 20, N-(5-fluoropyrimidin-4-yl)-2-(6-iodo-1-oxo-4-propan-2-ylphthalazin-2-yl)acetamide] | < 10 | 0.018 |  |  |
| CC(C)c1nn(CC(=O)Nc2ncncc2F)c(=O)c2ccc(C(F)F)cc12 [Example 21, 2-[6-(difluoromethyl)-1-oxo-4-propan-2-ylphthalazin-2-yl]-N-(5-fluoropyrimidin-4-yl)acetamide] | < 10 | 1.06 |  |  |
| CC(C)c1nn(CC(=O)Nc2ncncc2F)c(=O)c2ccc(Br)nc12 [Example 22, 2-(2-bromo-5-oxo-8-propan-2-ylpyrido[2,3-d]pyridazin-6-yl)-N-(5-fluoropyrimidin-4-yl)acetamide] | < 10 | 0.398 |  |  |

Source: patent US20230357162A1, “COMPOUNDS, COMPOSITIONS AND METHODS” (Denali Therapeutics Inc., priority 2020, published 2023)
